Key:
[1] = biological target: T1, flag-tagged human GST-Omega-2 (Homo sapiens, UniProt Q9H4Y5); test: Labeling of GST-Omega-2 by [14C]Compound 2 in infected SF9 cells, SDS/PAGE autoradiography; type: binding; parameters: expressed in transfected cells; host or cells: SF9 insect cells, baculovirus infection (pFASTBAC-flag shuttle vector); conditions: 60 min
T1 sequence (Q9H4Y5 1-242 limits assumed): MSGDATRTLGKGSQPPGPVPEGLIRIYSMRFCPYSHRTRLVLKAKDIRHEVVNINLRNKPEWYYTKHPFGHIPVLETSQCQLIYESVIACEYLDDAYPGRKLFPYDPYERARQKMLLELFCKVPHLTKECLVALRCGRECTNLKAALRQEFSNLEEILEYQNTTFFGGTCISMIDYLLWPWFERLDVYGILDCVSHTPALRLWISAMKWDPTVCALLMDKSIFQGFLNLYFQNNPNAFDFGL
Experimental: (§1) Insect cells (SF9) were infected with a baculovirus construct encoding flag-tagged human GST-Omega-2 (see Example 5) and seeded into individual 10 cm dishes. For comparison, SF9 cells also were infected with a baculovirus construct encoding IKK[…] (I-κB kinase-γ/NF-κB essential modulator (NEMO)). After 48 hr of infection, media were removed and replaced with fresh medium (6 ml) containing from 0.01 to 10 μM of [^14C]Compound 2. Cells were incubated with the radiolabeled diarylsulfonylurea for 60 min (at room temperature) and then collected by centrifugation and washed to remove unbound test agent. Each cell pellet then was suspended in 5 ml of PBS and divided into 2 fractions. Cells within one of these fractions (⅕ of the total) were collected by centrifugation and suspended in 150 µl of SDS/PAGE disaggregation buffer. Cells within the other fraction (⅘ of the total) were collected by centrifugation, solubilized by detergent extraction, and recombinant GST-Omega-2 was recovered by immunoprecipitation with the anti-Flag M2 antibody. Both the total cell lysates and the immunoprecipitates were fractionated by SDS/PAGE and the dried gels were analyzed by autoradiography.

[2] = biological target: T2, flag-tagged murine GST-Omega-2 (Mus musculus, UniProt Q8K2Q2); test: Labeling of murine GST-Omega-2 by [14C]Compound 2 in infected SF9 cells, SDS/PAGE autoradiography; type: binding; conditions: 60 min
T2 construct: expressed in transfected cells; host or cells: SF9 insect cells, baculovirus infection (pFASTBAC-flag shuttle vector)
T2 sequence (Q8K2Q2 1-248): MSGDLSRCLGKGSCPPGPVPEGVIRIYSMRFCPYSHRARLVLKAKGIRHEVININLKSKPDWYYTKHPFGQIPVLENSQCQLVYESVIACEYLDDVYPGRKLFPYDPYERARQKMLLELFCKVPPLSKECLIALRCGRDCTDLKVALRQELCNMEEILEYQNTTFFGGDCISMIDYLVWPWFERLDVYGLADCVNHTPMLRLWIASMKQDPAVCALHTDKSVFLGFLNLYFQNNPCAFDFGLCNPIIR
Experimental: as §1, with “murine” for “human”, “(IkappaB kinase gamma).” for “(I-κB kinase-γ/NF-κB essential modulator (NEMO)).”, “μM” for “μM of”

[3] = biological target: T1, flag-tagged human GST-Omega-2; test: Diarylsulfonylurea (Compound 2) affinity column binding of GST-Omega-2 from HEK293 lysate, Western detection; parameters: expressed in transfected cells; conditions: 5 mM in buffer; Western blot of column fractions
Source text: Human embryonic kidney (HEK293) cells were transfected with a pcDNA3.1 mammalian expression vector encoding FLAG-tagged human GST-Omega-2. Stable transfectants isolated by growth in the presence of G418 were subcloned and a high expressing colony was identified. Four confluent 10 cm dishes of this cell line were established after which the cells were harvested and then disrupted by nitrogen cavitation. The resulting cell lysate was clarified by centrifugation and the supernatant fraction was recovered and applied to an affinity column (1 ml) composed of 1-(1,2,3,5,6,7-Hexahydro-s-indacen-4-yl)-3-[2-fluoro-5-oxiranylbenzenesulfonyl]-urea (hereinafter referred to as Compound 2 as per U.S. Patent Publication 2002-0034764) attached to Thiolpropyl-Sepharose. Compound 2 is a diarylsulfonylurea that contains an epoxide group which can react to form a covalent linkage with Thiolpropyl-Sepharose. In some cases, the cell extract was applied to the column in a buffer containing 5 mM of a competitive inhibitor, 1-(1,2,3,5,6,7-Hexahydro-s-indacen-4-yl)-3-[4-(1-hydroxy-1-methylethyl)-furan-2-sulfonyl]-urea (hereinafter referred to as Compound 4 as per the '372 application). The column was washed with buffer then eluted with a denaturing detergent, sodium dodecyl sulfate (SDS). Individual 1 ml fractions were collected and aliquots of each were fractionated by SDS/PAGE. […]

[4] = biological target: T1, flag-tagged human GST-Omega-2; test: Competitive binding assay: incorporation of [14C]Compound 2 into GST-Omega-2 in infected SF9 cells; parameters: expressed in transfected cells; host or cells: SF9 insect cells, baculovirus infection (pFASTBAC-flag shuttle vector); conditions: 30 min preincubation, then 2 µM [14C]Compound 2 for 60 min, relative to control cultures
Experimental: Insect cells (SF9) were infected with a baculovirus construct encoding flag-tagged human GST-Omega-2 (see Example 5) and seeded into individual 10 cm dishes. After 48 hr of infection, media were removed and replaced with fresh medium (6 ml) containing 100, 200 or 400 μM Compound 4, 10 μM Compound 2, or neither compound. The cultures were incubated for 30 min at room temperature after which 2 µM [^14C]Compound 2 was introduced and the cultures were incubated for 60 min at room temperature. The cells then were harvested by centrifugation, washed with PBS to remove unbound radioactivity, and solubilized by detergent extraction. GST-Omega-2 was recovered by immunoprecipitation with anti-Flag M2 antibody, and the resulting immunoprecipitates were fractionated by SDS/PAGE; the dried gel subsequently was analyzed by phosphorimager analysis.

[5] = 1 µM, room temperature, versus IKK-expressing control cells
[6] = 10 µM (highest test concentration), control and GST-Omega-2-expressing cells

Structure (SMILES): O=C(Nc1c2c(cc3c1CCC3)CCC2)NS(=O)(=O)c1cc(C2CO2)ccc1F (centres unmarked) [[^14C]Compound 2]
- polypeptides labeled in infected cells [1, 5]: only the polypeptide migrating as GST-Omega-2 appeared labeled
- polypeptides labeled in infected cells [1, 6]: appeared to incorporate into several polypeptides
- incorporation of radioactivity into anti-flag immunoprecipitated GST-Omega-2 ([1]; 0.01 to 10 μM): dose-dependent increase in the incorporation of radioactivity into the immunoprecipitated protein
- polypeptides labeled in infected cells [2, 5]: only the polypeptide migrating as GST-Omega-2 appeared labeled
- polypeptides labeled in infected cells [2, 6]: appeared to incorporate into several polypeptides
- incorporation of radioactivity into anti-flag immunoprecipitated GST-Omega-2 ([2]; 0.01 to 10 μM): dose-dependent increase in the incorporation of radioactivity into the immunoprecipitated protein

Structure (SMILES): CC(C)(O)c1coc(S(=O)(=O)NC(=O)Nc2c3c(cc4c2CCC4)CCC3)c1 [Compound 4, 1-(1,2,3,5,6,7-Hexahydro-s-indacen-4-yl)-3-[4-(1-hydroxy-1-methylethyl)-furan-2-sulfonyl]-urea]
- competition with binding of GST-Omega-2 to the diarylsulfonylurea affinity column [3]: competed with the specific binding of GST-Omega-2 to the diarylsulfonylurea affinity column
- inhibition of incorporation of [14C]Compound 2 into GST-Omega-2 ([4]; 100 µM test compound): 63%
- inhibition of incorporation of [14C]Compound 2 into GST-Omega-2 ([4]; 200 µM test compound): 73%
- inhibition of incorporation of [14C]Compound 2 into GST-Omega-2 ([4]; 400 µM test compound): 84%

Structure (SMILES): O=C(Nc1c2c(cc3c1CCC3)CCC2)NS(=O)(=O)c1cc(C2CO2)ccc1F (centres unmarked) [Compound 2, 1-(1,2,3,5,6,7-Hexahydro-s-indacen-4-yl)-3-[2-fluoro-5-oxiranylbenzenesulfonyl]-urea]
- inhibition of incorporation of [14C]Compound 2 into GST-Omega-2 ([4]; 10 µM unlabeled compound): 90%
